Columns and labels:
recombinant human PKR = recombinant human PKR (Homo sapiens, UniProt P30613); assay: pyruvate kinase (PKR) activity test, activation of recombinant enzyme (fluorescence kit); type: biochemical
Method: To test the activation effect of the compound of the present disclosure on recombinant human PKR.
3.1 A recombinant human PKR enzyme solution was prepared at a concentration of 60 ng/well (a 20 µL reaction system), and 5 µL of the solution was added into each well of a black transparent bottom 384-well plate.
3.2 Compound solutions were prepared at different concentrations, with the final concentrations of 1000/300/100 nM (containing 1% DMSO). Each 5 µL of the compound solution was added into the plate in step 3.1 and mixed well. The plate was incubated at room temperature for 10 min.
3.3 A reaction system was prepared according to the instructions of a kit (as shown in the table below), and 10 µL of the reaction system was added into each well of the 384-well plate, and mixed uniformly with the solution in step 3.2.
3.4 The 384-well plate was placed on a microplate reader to detect the fluorescence value at 540/590 nm, where the value was read every 2 minutes and the detection was conducted continuously for 1 hour.
3.5 The Slope value within the detection time was calculated, and the 1% DMSO well was used as a control well to calculate a compound activation rate. Activation rate % = (Slopeofcompoundwell/Slopeofcontrolwell) × 100% [formula]
With the log value of the compound concentration as the X axis and the percentage activation rate as the Y axis, a dose-effect curve was fitted with the log(agonist) vs. response-variable slope of the analysis software GraphPad Prism 5, and the AC50 value of the activity of each compound against PKR was obtained. Y = min + (max−min)/(1+10^(∧)((LogAC50−X)×Hillslope)). [formula]

[1] = molecular target: T1, PKR in ex vivo red blood cells from healthy individuals (Homo sapiens, UniProt P30613); assay: ex vivo pyruvate kinase (PKR) activity experiment, red blood cells of healthy individuals; type: cell-based; conditions: 3 hours co-cultivation
T1 construct: endogenous in cells; host or cells: human red blood cells isolated from fresh peripheral blood of healthy individuals
Method: To test the effects of the compound of the present disclosure on PKR activation in ex vivo red blood cells from healthy individuals and patients with thalassemia.
• i. 5 g of glucose, 85 mg of adenine, and 2.625 g of mannitol were weighed and added into a 50 mL centrifuge tube. 40 mL of PBS was added to dissolve (sonicate for 30 minutes until completely dissolved). The solution was filtered through a 0.22 µm filter, then added to 460 mL of sterile PBS and mixed thoroughly.
• i. Fresh human peripheral blood was collected. K2EDTA was used as the anticoagulant. 1 part anticoagulant with 9 parts blood was mixed, then centrifuged at 500 g for 10 minutes at room temperature to remove the plasma. • ii. Packed red blood cells: 1.5 volumes of PBS were added, then centrifuged at 2000 ×g for 5 minutes at room temperature. After centrifugation, the supernatant was removed. This step was repeated twice. • iii. Diluted red blood cells: 1.5 volumes of PBS were added, then resuspended and mixed thoroughly. • iv. The diluted red blood cells were slowly added to 0.5 volume of 70% isotonic solution (e.g., 7.5 mL of diluted red blood cells + 3 mL of 70% isotonic solution Percoll) and centrifuged at 4000 ×g for 20 minutes at 4°C. • v. The supernatant was removed. The red blood cells at the bottom were washed once with 4-5 mL of PBS to elute the Percoll gel, and then centrifuged at 2000 ×g for 5 minutes at room temperature. • vi. The supernatant was removed. The red blood cells were counted and then diluted in AGAM medium containing 10% FBS to a density of 2 × 10^8 cells/mL for storage at 4°C.
i. The red blood cells were seeded into a 96-well plate at a uniform density of 1 × 10^7 cells/mL, with 100 µL per well. The test compounds (dissolved in DMSO) were diluted and added to the cell culture medium, resulting in final compound concentrations of 3000, 1000, 300, 100, 10, 3, and 1 nM (with 1% DMSO). The cells and compounds were co-cultivated for 3 hours in a 37°C incubator with 5% CO2. Subsequently, the plate was centrifuged at 2000 g for 20 minutes, and the supernatant was discarded. 100 µL of red blood cell lysis buffer was added to the cell pellet, vortexed for 20 minutes, and centrifuged at 4000 g for 5 minutes. The supernatant was collected for analysis. ii. The reaction system was prepared according to the kit instructions (shown as the table below), 10 µL of the reaction system was added to each well of a 384-well plate, and 10 µL of red blood cell lysis buffer was took and mixed well (20 µL reaction system).
iii. A black, transparent-bottomed 384-well plate was placed in a microplate reader to measure fluorescence at 540/590 nm. The fluorescence was read every 2 minutes for 1 hour.
i. The Slope value was calculated over the assay time. Compound activation percentage was calculated using the 1% DMSO well as the control well. Activation percentage = (Slope of compound well / Slope of control well) × 100% ii. Dose-response curve was fit using the logarithmic compound concentration on the X-axis and the percent activation percentage on the Y-axis, the log(agonist) vs. response - variable slope function in GraphPad Prism 5 was used to determine the AC50 value for each compound on PKR activity. Y = min + (max−min)/(1+10^(∧)((LogAC50−X)×Hillslope)). [formula] The PKR agonist effects of the compound of the present disclosure on ex vivo red blood cells from healthy individuals and thalassemia patients were determined using the above assay. The AC50 values measured on ex vivo red blood cells from healthy individuals are as follows (A represents 0-100 nM, B represents 101-300 nM, and C represents 300-1000 nM): […]

T1 sequence (P30613 whole entry): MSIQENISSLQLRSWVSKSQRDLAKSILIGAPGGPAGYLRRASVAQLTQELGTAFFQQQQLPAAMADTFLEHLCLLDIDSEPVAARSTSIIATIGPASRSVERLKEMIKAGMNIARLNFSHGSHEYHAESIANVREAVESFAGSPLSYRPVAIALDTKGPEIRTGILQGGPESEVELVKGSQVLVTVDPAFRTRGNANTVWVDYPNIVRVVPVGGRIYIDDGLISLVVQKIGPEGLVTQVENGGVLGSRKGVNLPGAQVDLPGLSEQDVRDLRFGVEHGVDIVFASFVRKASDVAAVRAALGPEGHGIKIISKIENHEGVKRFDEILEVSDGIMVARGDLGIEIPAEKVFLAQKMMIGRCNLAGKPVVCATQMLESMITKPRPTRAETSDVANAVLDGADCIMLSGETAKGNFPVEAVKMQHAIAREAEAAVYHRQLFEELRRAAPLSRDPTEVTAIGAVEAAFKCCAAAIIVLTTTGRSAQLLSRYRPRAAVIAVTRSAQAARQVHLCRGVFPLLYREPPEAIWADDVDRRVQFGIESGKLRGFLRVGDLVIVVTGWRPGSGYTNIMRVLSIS
Chain of recombinant human PKR (P30613 whole entry): as above

| SMILES | AC50 (recombinant human PKR) | AC50 [1] |
| --- | --- | --- |
| O=C(C(CO)c1ccccc1)N1CC(=C2CN(S(=O)(=O)c3ccc(OC(F)F)cc3)C2)C1 (stereo not shown) [Compound 6, 1-(1'-((4-(difluoromethoxy)phenyl)sulfonyl)-1',4'-dihydro-2H,2'H-[3,3'-diazetidinylidene]-1(4H)-yl)-3-hydroxy-2-phenylpropan-1-one] | < 100 nM | 101 to 300 nM |
| O=C(C(O)c1ccccc1)N1CC(=C2CN(S(=O)(=O)c3ccc(OC(F)F)cc3)C2)C1 (stereo not shown) [Compound 8, 1-(1'-((4-(difluoromethoxy)phenyl)sulfonyl)-1',4'-dihydro-2H,2'H-[3,3'-diazetidinylidene]-1(4H)-yl)-2-hydroxy-2-phenylethan-1-one] | 300 to 1000 nM | < 100 nM |
| O=C(N1CC(=C2CN(S(=O)(=O)c3ccc(OC(F)F)cc3)C2)C1)C1(c2ccccc2)CCOCC1 [Compound 14, (1'-((4-(difluoromethoxy)phenyl)sulfonyl)-1',4'-dihydro-2H,2'H-[3,3'-diazetidinylidene]-1(4H)-yl)(4-phenyltetrahydro-2H-pyran-4-yl)methanone] | 101 to 300 nM | 101 to 300 nM |
| O=C(C(CO)c1ccc(F)cc1)N1CC(=C2CN(S(=O)(=O)c3ccc4c(c3)OCCO4)C2)C1 (stereo not shown) [Compound 18, 1-(1'-((2,3-dihydrobenzo[b][1,4]dioxin-6-yl)sulfonyl)-1',4'-dihydro-2H,2'H-[3,3'-diazetidinylidene]-1 (4H)-yl)-2-(4-fluorophenyl)-3-hydroxypropan-1-one] | < 100 nM | < 100 nM |
| O=C(C(CO)c1ccc(F)cc1)N1CC(=C2CN(S(=O)(=O)c3cnc4c(c3)OCCO4)C2)C1 (stereo not shown) [Compound 19, 1-(1'-((2,3-dihydro-[1,4]dioxolane[2,3-b]pyridin-7-yl)sulfonyl)-1',4'-dihydro-2H,2'H-[3,3'-diazetidinylidene]-1(4H)-yl)-2-(4-fluorophenyl)-3-hydroxypropan-1-one] | 101 to 300 nM | 300 to 1000 nM |
| O=C([C@H](CO)c1ccccc1)N1CC(=C2CN(S(=O)(=O)c3cccnc3)C2)C1 [Compound 68, (S)-3-hydroxy-2-phenyl-1-(1'-(pyridin-3-ylsulfonyl)-1',4'-dihydro-2H,2'H-[3,3'-diazetidinylidene]-1(4H)-yl)propane-1-one] |  | 101 to 300 nM |
| N#Cc1ccc(S(=O)(=O)N2CC(=C3CN(C(=O)[C@H](CO)c4ccccc4)C3)C2)nc1 [Compound 70, (S)-6-((1'-(3-hydroxy-2-phenylpropionyl)-1',4'-dihydro-2H,2'H-[3,3'-diazetidinylidene]-1(4H)-yl)sulfonyl)nicotinonitrile] |  | 101 to 300 nM |
| O=C(C(CO)c1ccc(C(F)F)cc1)N1CC(=C2CN(S(=O)(=O)c3ccccn3)C2)C1 (stereo not shown) [Compound 71, 2-(4-(difluoromethyl)phenyl)-3-hydroxy-1-(1'-(pyridin-2-ylsulfonyl)-1',4'-dihydro-2H,2'H-[3,3'-diazetidinylidene]-1(4H)-y 1)propan-1-one] |  | 101 to 300 nM |
| CC(C)Oc1ccc(S(=O)(=O)N2CC(=C3CN(C(=O)[C@H](CO)c4ccccc4)C3)C2)nc1 [Compound 81, (S)-3-hydroxy-1-(1'-((5-isopropoxypyridin-2-yl)sulfonyl)-1',4'-dihydro-2H,2'H-[3,3'-diazetidinylidene]-1(4H)-yl)-2-phenylpropan-1-one] |  | 300 to 1000 nM |
| O=C([C@H](CO)c1ccccc1)N1CC(=C2CN(S(=O)(=O)c3ccc(OC4CC4)cn3)C2)C1 [Compound 82, (S)-1-(1'-((5-cyclopropoxypyridin-2-yl)sulfonyl)-1',4'-dihydro-2H,2'H-[3,3'-diazetidinylidene]-1(4H) -yl)-3-hydroxy-2-phenylpropan-1-one] |  | 101 to 300 nM |
| O=C(C(CO)C1CCCCC1)N1CC(=C2CN(S(=O)(=O)c3ccccn3)C2)C1 (stereo not shown) [Compound 90, 2-cyclohexyl-3-hydroxy-1-(1'-(pyridin-2-ylsulfonyl)-1',4'-dihydro-2H,2'H-[3,3'-diazetidinylidene]-1(4H)-yl)propan-1-one] |  | 300 to 1000 nM |

Source: patent publication EP4721737A1, “USE OF PHARMACEUTICAL COMPOSITION COMPRISING COMPOUND HAVING BIS(AZANYLYLIDENE) SULFONYL STRUCTURE FOR TREATING ANEMIA-RELATED DISEASES” (Scinnohub Pharmaceutical Co., Ltd., priority 2023, dated 2024)
